The record followed here is patent US6605639B1, “Ligands of nuclear receptor” (Nuclear Receptor Research, Ltd., priority 1998, dated 2003).

Assay [1] has as its system cholesterol-7α hydroxylase. The assay is described as follows: Formation of 7α-hydroxycholesterol in hepatic microsome of treated rats. The assay is classed as in vivo, rat. The settings on record: for 7-α-Hydorxycholesterol / 7-α-Hydorxycholesterol (conversion rate): 7 times, 1% cholesterol feed, average of 5 rats. The method, then: To examine the function mechanism of the compounds of the present invention for promoting bile acid excretion, an experiment was carried out to study the effect on a nuclear receptor LXR. It is assumed that LXR, which is a special nuclear receptor in the liver, might be a cholesterol sensor acting with 22-hydroxycholesterol as a ligand (Bethany A. Janowski at al., Nature 383:728-731, 1996). When cholesterol is accumulated in excess in a respective organ, LXR binds to the ligand, forms a heterodimer with RXR, and then binds to the hormone response element. This binding serves as a signal for promoting the oxidation of cholesterol into bile acid to be excreted from the body, thereby reducing deposited cholesterol. Accordingly, the liver is the organ which accumulates cholesterol in the largest amount and, at the same time, releases cholesterol as bile acid in the largest amount. It is estimated that the ability of the compounds of the present invention to promote the excretion of bile acid into feces would be established as follows. In the liver, RXR and LXR bind to the corresponding ligands, subsequently form a heterodimer with each other, and thus promote the expression of colesterol-7α-hydroxylase which is the rate-limiting enzyme in the biosynthesis pathway of bile acid. That is to say, it is estimated that the compounds of the present invention, ligands of RXR, would promote the transcription of the gene of colesterol-7α-hydroxylase (i.e., the enzyme of the rate state in the bile acid biosynthesis in the liver) and thus enhance the expression of colesterol-7α-hydroxylase. […] Accordingly, it can be concluded that the difference between the effects of clofibrate and the compounds of the present invention on cholesterol metabolism resides in that the former is a ligand of PPARα which is not capable of forming a heterodimer with LXR while the latter enhance the transcription of cholesterol oxidase gene RXR ligand-dependently and thus promote the excretion as bile acid from the body. These findings can be regarded as one major aspect of the present invention.
The experiment was carried out as follows. For each compound, 10 male Sprague Dawley rats weighing about 200 g were divided into 2 groups at random and fed for a week with a powdery rat feed (CE-2; Nippon Crea Co., Ltd.) containing 1% of cholesterol and drinking water ad libitum. The compounds of the present invention were suspended in a 2% acacia solution and orally administered by force once a day 7 times continuously in a dose of 5 mg/kg (Compound-1 and Compound-26) or 20 mg/kg (Compound-6 and Compound-14). In the early morning of the day 8, each animal was killed by blood loss. After refluxing with physiological saline, the liver was taken out immediately. Then 4 times as much 250 mM sucrose solution (containing 75 mM of nicotinamide, 1 mM of EDTA and 0.5 mM of MgCl2) was added to the liver and the mixture was ground with the use of a Teflon homogenizer. Then the liquid ground matter was centrifuged at 9500G for 15 minutes at 4° C. and the mitochondria-free supernatant thus obtained was further centrifuged at 105000G for 60 minutes to thereby separate a microsome fraction. By using the microsome thus separated, the yield of […] was measured in a conventional manner and the conversion rate was calculated.

The next assay concerns the target T1, RAR (Homo sapiens, UniProt P10276).
T1 construct: expressed in transfected cells; host or cells: COS-1 cells
T1 sequence (P10276 1-462): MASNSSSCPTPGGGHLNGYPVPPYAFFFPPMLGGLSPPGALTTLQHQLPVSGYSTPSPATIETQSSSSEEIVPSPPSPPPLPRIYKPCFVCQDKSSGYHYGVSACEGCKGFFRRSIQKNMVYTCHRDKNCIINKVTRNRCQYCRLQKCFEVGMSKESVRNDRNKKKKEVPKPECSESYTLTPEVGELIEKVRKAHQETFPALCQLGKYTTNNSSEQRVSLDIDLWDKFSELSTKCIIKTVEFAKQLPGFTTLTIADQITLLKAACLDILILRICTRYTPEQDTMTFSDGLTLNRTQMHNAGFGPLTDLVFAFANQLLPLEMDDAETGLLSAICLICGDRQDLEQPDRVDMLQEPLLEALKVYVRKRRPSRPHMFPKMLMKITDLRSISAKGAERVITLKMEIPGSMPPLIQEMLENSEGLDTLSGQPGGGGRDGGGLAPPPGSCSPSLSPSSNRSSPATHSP
The assay is described as follows: RAR reporter gene (luciferase) transfer assay in COS-1 cells. Format: cell-based. The note with it: control lot = 1. From the text: Each value means the degree of increase in the luciferase activity, which is expressed by referring the luciferase activity in the control lot as to 1, caused by the addition of the corresponding compound.
As a substitute for a plasmid containing a luciferase gene under the regulation in expression by RXR response element (pRXRL:RXRE-SV40 luciferase), and the RXRα expression plasmid (pRXRα); a plasmid containing a luciferase gene under the regulation in expression by RXR response element (pRARL:RASE-SV40 luciferase), and a […] (pRARα) were transferred into COS-1 cells. Transfectants with these plasmids and the compound of the present invention (concentration: 10^−4 to 10^−7 M) were added to the culture.
After sucking off the medium from the Petri dish, […] of a cultured cell lysing solution (25 mM Tris phosphate buffer (pH 7.8), 2 mM 1,2-diaminocyclohexane-N, N,N′,N′-tetraacetate, 10% glycerol, 1% Triton X-100) was added and the cells were peeled off with a rubber policeman and collected. After completely disrupting the cells by freezing and melting, the cells were centrifuged at 4° C. (15,000 rpm, 2 min) and the supernatant thus obtained was employed as a sample for measurement. To 20 ml of the supernatant, 100 ml of a luciferase substrate solution (2.14 mg of Co-A, 100 ml of 470 mM D-Luciferin, 200 ml of 530 mM ATP, 2 ml of DTT-Tricine buffer (pH 7.8)) was added and the fluorescence intensity was measured with a luminometer (ATTO Luminosensor AB-2000). To measure the β-galactosidase for determining the gene transfer efficiency, using a Luminescent β-galactosidase detection kit II (Clontech), fluorescence intensity was measured by a luminometer.
On the technique in general: Reporter assays use an easily measured gene product as a stand-in for the process of interest.

With “3-[5-[l(R),2(S),6(S)-trimethyl-3-oxocylohexyl]-3-methyl-2,4-pentadienyl]-2,4-dihydroxy-5-chloro-6-methylbenzaldehyde [Compound-1]”, in assay [1] (5 mg/kg oral once a day), the 7-α-Hydorxycholesterol is on record as 3.80 nM/hr/mg protein and the “7-α-Hydorxycholesterol (conversion rate)” value was 5.51%. The “degree of increase in the luciferase activity, RAR vector” value (shortened to “degree of increase”) at RAR (10^−6 M) stood at 30.

Turning to `COc1c(Cl)c(C)c(C=O)c(O)c1C/C=C(C)/C=C/[C@@]1(C)[C@H](C)CCC(=O)[C@@H]1C` [Compound-6, 4-O-methylASC], in assay [1] (20 mg/kg oral once a day), the 7-α-Hydorxycholesterol was found to be 3.61 nM/hr/mg protein and the “7-α-Hydorxycholesterol (conversion rate)” value came to 5.30%. In addition, the “enzymatic activity and yield of colesterol-7α-hydroxylase per unit protein weight” value in assay [1] (ground liver of orally treated rats) was “elevated dose-dependently”. Also, the “degree of increase” value on RAR (5 × 10^−6 M) was 35.

In the case of `CC(/C=C/[C@@]1(C)[C@H](C)CCC(=O)[C@@H]1C)=C\Cc1c(O)c(C=O)c(C)c(Cl)c1OCC(=O)O` [Compound-14, 4-O-carboxymethylASC], in assay [1] (20 mg/kg oral once a day), the 7-α-Hydorxycholesterol is listed as 4.47 nM/hr/mg protein and the “7-α-Hydorxycholesterol (conversion rate)” value amounted to 7.06%. Further, the “degree of increase” value on RAR (10^−5 M) was determined as 38.

Turning to `CC(/C=C/C1(C)C(C)C=CC(=O)C1C)=C\Cc1c(O)c(Cl)c(C)c(C=O)c1O` (stereo not shown) [Compound-26], in assay [1] (5 mg/kg oral once a day), the 7-α-Hydorxycholesterol amounted to 3.31 nM/hr/mg protein and the “7-α-Hydorxycholesterol (conversion rate)” value stood at 4.00%. Further, the “degree of increase” value on RAR (4 × 10^−7 M) was determined as 33.
